System: rabbit platelets
Experiment: In vitro platelet aggregation (turbidimetry, platelet-rich plasma)
Type: cell-based
Details: for activity on this in vitro platelet aggregation test: result in words, concentration and aggregating agent not stated
Description: The platelet aggregation is measured by the turbidimetry method inspired by Born, by detecting the optical transmission through a platelet-rich plasma (PRP) to which and aggregating agent has been added. When the platelets aggregate, the plasma becomes clear and the optical transmission increases. Blood is taken (3 tubes per rabbit) by cardiac puncture from a rabbit into tubes containing sodium citrate. To obtain the platelet-rich plasma (PRP), the tubes are centrifuged at 160 g for 10 minutes. The supernatants are collected (PRP) and the pellet is re-centrifuged at 2000 g for 15 minutes to obtain the platelet-poor plasma (PPP). By dilution with the PPP, the PRP is adjusted to a concentration of 300,000 platelets per mm^3±10%. The counting is carried out using a Coulter ZM counter. Tubes containing 320 μl of PRP are incubated at +37° C. for 30 minutes in pre-incubation wells. The aggregometer is calibrated with the PPP for an optical transmission of 100% corresponding to a complete aggregation, and with the PRP obtained from the same rabbit for an optical transmission of 0% corresponding to the absence of aggregation. The test product P is added in a volume of 40 μl. After incubation for 2 minutes, the aggregating agent (10 μM ADP, 0.2 mM sodium arachidonate or collagen […]) is added in a volume of 40 μl. The aggregation begins immediately and can be seen on the printer. On the plot obtained, the height of the aggregation curve is measured in cm from the baseline before addition of the aggregating agent, and then converted into mVolts (=1/OD) using the formula 10 mV=2.5 cm.

CC(=O)Oc1ccccc1C(=O)O [Aspirin, reference compound]
inhibition at 50 µM (Oryctolagus cuniculus, Platelet, product concentration 5 × 10^−5 M, rabbit platelets, arachidonic acid 0.2 mM, read-out: % of inhibition of the aggregation induced by arachidonic acid): 85%
inhibition at 100 µM (Oryctolagus cuniculus, Platelet, product concentration 10^−4 M, rabbit platelets, arachidonic acid 0.2 mM, read-out: % of inhibition of the aggregation induced by arachidonic acid): 100%
inhibition at 10 µM (Oryctolagus cuniculus, Platelet, product concentration 10^−5 M, rabbit platelets, arachidonic acid 0.2 mM, read-out: % of inhibition of the aggregation induced by arachidonic acid): 13%
inhibition at 1 µM (Oryctolagus cuniculus, Platelet, product concentration 10^−6 M, rabbit platelets, arachidonic acid 0.2 mM, read-out: % of inhibition of the aggregation induced by arachidonic acid): 8%

CCC1OC(=O)C(C)C(=O)C(C)C(OC2OC(C)CC(N(C)C)C2O)C(C)(OC)CC(C)C(=O)C(C)C2N(CCCCn3cnc(-c4cccnc4)c3)C(=O)OC12C [Product P3, 11,12-dideoxy-3-de((2,6-dideoxy-3-C-methyl-3-O-methyl-alpha-L-ribohexopyranosyl)oxy)-6-O-methyl-3-oxo-12,11-(oxycarbonyl((4-(4-(3-pyridyl)-1H-imidazol-1-yl)butyl)imino))erythromycin]
activity on this in vitro platelet aggregation test: good activity

CC[C@H]1OC(=O)[C@H](C)C(=O)[C@H](C)[C@@H](O[C@@H]2O[C@H](C)C[C@H](N(C)C)[C@H]2O)[C@](C)(OC)C[C@@H](C)C(=O)[C@H](C)[C@H]2N(COCCn3cnc(-c4cccnc4)c3)C(=O)O[C@]12C [Product P]
% of inhibition of the aggregation induced by arachidonic acid (product concentration 10^−4 M, rabbit platelets, arachidonic acid 0.2 mM): 90%
% of inhibition of the aggregation induced by arachidonic acid (product concentration 10^−5 M, rabbit platelets, arachidonic acid 0.2 mM): 73%
% of inhibition of the aggregation induced by arachidonic acid (product concentration 10^−6 M, rabbit platelets, arachidonic acid 0.2 mM): 42%
% of inhibition of the aggregation induced by arachidonic acid (product concentration 10^−7 M, rabbit platelets, arachidonic acid 0.2 mM): 7%

CCC1OC(=O)C(C)(F)C(=O)C(C)C(OC2OC(C)CC(N(C)C)C2O)C(C)(OC)CC(C)C(=O)C(C)C2N(CCCCn3cnc(-c4cccnc4)c3)C(=O)OC12C [Product P2, 11,12-dideoxy-3-de((2,6-dideoxy-3-C-methyl-3-O-methyl-alpha-L-ribohexopyranosyl)oxy)-2-fluoro-6-O-methyl-3-oxo-12,11-(oxycarbonyl((4-(4-(3-pyridyl)-1H-imidazol-1-yl)butyl)-imino))erythromycin]
activity on this in vitro platelet aggregation test: good activity

CCC1OC(=O)C(C)C(=O)C(C)C(OC2OC(C)CC(N(C)C)C2O)C(C)(OC)CC(C)C(=O)C(C)C2N(CCCCn3cnc(-c4cccnc4)n3)C(=O)OC12C (centres unmarked) [Product P1]
activity on this in vitro platelet aggregation test: good activity

From patent US20080139489A1, “USE OF KETOLIDES FOR PREVENTING ARTERIAL THROMBOTIC COMPLICATIONS RELATED TO ATHEROSCLEROSIS” (Aventis Pharma S.A., priority 1997, published 2008)
